According to patent US11946094B2, “Combination therapies and methods of use thereof” (Augusta University Research Institute, Inc., priority 2017, dated 2024):
Entries after “also recorded” stand apart in the source; their conditions may differ. Structures can show the parent of a compound that is named as a salt.

Each molecule was assayed on OVCAR-8 cells (assay: Drug-siRNA combination screen: 346-compound anticancer library at 100 nM, CCK-8 viability). Settings: OVCAR-8; 12 tested HDACi.

Row | Molecule | number of tested HDACi highly synergistic with the gene knockdown
1 | SLC7A11: siRNA knocking down SLC7A11; sense GGCUGAUUUAUCUUCGAUAtt (SEQ ID NO 31) (sense GGCUGAUUUAUCUUCGAUANN; antisense UAUCGAAGAUAAAUCAGCCNN; listed as RNA, chemistry not given here) | at least six
2 | AXL: siRNA knocking down AXL; sense CAGCGAGAUUUAUGACUAUtt (SEQ ID NO 15) (sense CAGCGAGAUUUAUGACUAUNN; antisense AUAGUCAUAAAUCUCGCUGNN; listed as RNA, chemistry not given here) | at least six

Same assay, conditions: OVCAR-8; 346 compounds

Row | Molecule | number of antagonistic/additive or highly antagonistic compounds with the gene knockdown
3 | SLC7A11: siRNA knocking down SLC7A11; sense GGCUGAUUUAUCUUCGAUAtt (SEQ ID NO 31) (sense GGCUGAUUUAUCUUCGAUANN; antisense UAUCGAAGAUAAAUCAGCCNN; listed as RNA, chemistry not given here) | Twelve or fewer
4 | AXL: siRNA knocking down AXL; sense CAGCGAGAUUUAUGACUAUtt (SEQ ID NO 15) (sense CAGCGAGAUUUAUGACUAUNN; antisense AUAGUCAUAAAUCUCGCUGNN; listed as RNA, chemistry not given here) | Twelve or fewer

Same assay, conditions: OVCAR-8; drug 100 nM plus siRNA knockdown of each of 18 genes; distance VAB−VA×VB in SD; single gene contributes at most +5 / −5; negative = synergy, positive = antagonism

Row | Molecule | Score (sum of observed SD values for 18 genes)
5 | Cc1nc(-c2ccc(OCC(C)C)c(C#N)c2)sc1C(=O)O [Febuxostat] | −18.04 SD
6 | Cc1ccc(C(=O)N(CCCN)[C@@H](c2oc3cc(Cl)ccc3c(=O)c2Cc2ccccc2)C(C)C)cc1 [SB 743921] | −4.09 SD
7 | CC(C)C[C@@H](C(=O)N[C@H](C(=O)OC1CCCC1)c1ccccc1)[C@H](O)C(=O)NO [Tosedostat] | 5.66 SD
8 | Cl.Cl.Clc1ccc(Nc2nnc(Cc3ccncc3)c3ccccc23)cc1 [Vatalanib 2HCI] | −3.51 SD
9 | CNC(=O)c1cc(Oc2ccc(NC(=O)Nc3cc(C(C)(C)C)nn3-c3ccc4ncccc4c3)c(F)c2)ccn1 [Rebastinib] | 17.66 SD
10 | Oc1cccc(-c2nc(N3CCOCC3)c3oc4ncccc4c3n2)c1 [PI-103] | -56.96 SD
11 | C#Cc1cccc(Nc2ncnc3cc(OC)c(OCCCCCCC(=O)NO)cc23)c1 [CUDC-101] | −46.83 SD
12 | Nc1nc(=O)c2c([nH]1)NCC(CNc1ccc(C(=O)N[C@@H](CCC(=O)[O-])C(=O)[O-])cc1)N2C=O.[Ca+2] (stereo partly drawn) [Leucovorin Calcium] | 1.29 SD
13 | Cc1cnc(NC(=O)Nc2cc(Br)c(C)cc2OC[C@@H]2CNCCO2)cn1 [LY2603618] | -52.09 SD
14 | CCc1c2c(nc3ccc(OC(=O)N4CCC(N5CCCCC5)CC4)cc13)-c1cc3c(c(=O)n1C2)COC(=O)[C@]3(O)CC [Irinotecan] | −36.08 SD
15 | CC1=C2C[C@H]3[C@@H](CC=C4C[C@@H](O)CC[C@@]43C)[C@@H]2CC[C@]12O[C@@H]1C[C@H](C)CN[C@H]1[C@H]2C [Cyclopamine] | 3.03 SD
16 | Cc1ccc([N+](=O)[O-])cc1S(=O)(=O)N(C)/N=C/c1cnc2ccc(Br)cn12 [PIK-75] | −19.42 SD
17 | Cc1ccccc1-n1c(Cn2cnc3c(N)ncnc32)nc2cccc(C)c2c1=O [IC - 87114] | 14.65 SD
18 | CCN[C@H]1C[C@H](C)S(=O)(=O)c2sc(S(N)(=O)=O)cc21.Cl [Dorzolamide HCI] | 9.66 SD
19 | CC#C[C@]1(O)CC[C@H]2[C@@H]3CCC4=CC(=O)CCC4=C3[C@@H](c3ccc(N(C)C)cc3)C[C@@]21C [Mifepristone] | −22.75 SD
20 | CN(C)CCOc1ccc(/C(=C(/CCCl)c2ccccc2)c2ccccc2)cc1 [Toremifene Citrate] | −22.88 SD
21 | CN1CCC(CNc2ccc3ncc(-c4cccc(OC(F)(F)F)c4)n3n2)CC1 [SGI - 1776] | −12.21 SD
22 | N#CCNC(=O)c1ccc(-c2ccnc(Nc3ccc(N4CCOCC4)cc3)n2)cc1 [Momelotenib] | −0.52 SD
23 | CC(C)(C)c1cc(NC(=O)Nc2ccc(-c3cn4c(n3)sc3cc(OCCN5CCOCC5)ccc34)cc2)no1 [Quizartinib] | −12.85 SD

Row | Molecule | Score (sum of observed SD values for 18 genes)
24 | C[C@@H](Oc1cc(-n2cnc3ccc(CN4CCN(C)CC4)cc32)sc1C(N)=O)c1ccccc1C(F)(F)F [GSK461364] | 4.65 SD
25 | CCC(C)(C)C(=O)O[C@H]1C[C@@H](C)C=C2C=C[C@H](C)[C@H](CC[C@@H]3C[C@@H](O)CC(=O)O3)[C@H]21 [Simvastatin] | −20.34 SD
26 | COC(=O)c1ccc2c(c1)NC(=O)/C2=C(\Nc1ccc(N(C)C(=O)CN2CCN(C)CC2)cc1)c1ccccc1 [Nintedanib] | −36.11 SD
27 | C[C@]12C=CC(=O)C=C1CC[C@@H]1[C@@H]2C(=O)C[C@@]2(C)[C@H]1CC[C@]2(O)C(=O)CO [Prednisone] | −20.64 SD
28 | COc1cc2c(N3CCN(C(=O)Nc4ccc(OC(C)C)cc4)CC3)ncnc2cc1OCCCN1CCCCC1 [Tandutinib] | −14.99 SD
29 | Cc1ccc(NC(=O)c2ccc(CN3CCN(C)CC3)cc2)cc1Nc1nc(-c2cccnc2)cs1 [Masitinib] | −4.23 SD
30 | NC(=O)CC[C@@H](N)C(=O)O [D-glutamine] | 0.27 SD
31 | COc1ccc(C2=N[C@@H](c3ccc(Cl)cc3)[C@@H](c3ccc(Cl)cc3)N2C(=O)N2CCNC(=O)C2)c(OC(C)C)c1 [Nutlin-3] | −5.25 SD
32 | NC(=O)Nc1cc(-c2cccc(F)c2)sc1C(=O)N[C@H]1CCCNC1 [AZD7762] | −43.68 SD
33 | CC(C)c1ccccc1Cc1cc(C(=O)Nc2ccc(S(=O)(=O)c3ccccc3C(C)(C)C)cc2)c(O)c(O)c1O [TW-37] | −36.72 SD
34 | CN(C)Cc1c(C(=O)NCCOc2ccc(C(=O)NO)cc2)oc2ccccc12 [PCI-24781] | -54.91 SD
35 | CN1CCN(c2nc(C3=C(c4c[nH]c5ccccc45)C(=O)NC3=O)c3ccccc3n2)CC1 [Sotrastaurin] | −16.11 SD
36 | CC(=O)Nc1ccc(OC[C@](C)(O)C(=O)Nc2ccc([N+](=O)[O-])c(C(F)(F)F)c2)cc1 [Andarine] | −7.28 SD
37 | CN(CCOc1ccc(CC2SC(=O)NC2=O)cc1)c1ccccn1 (stereo not drawn) [Rosiglitazone] | −27.32 SD
38 | Cc1ccc2c(=O)c3cccc(CC(=O)O)c3oc2c1C [Vadimezan] | −28.75 SD
39 | O=C(/C=C/c1cccnc1)NCCCCC1CCN(C(=O)c2ccccc2)CC1 [APO866] | 7.8 SD
40 | O=C(O)CC[C@H]1CC[C@@](c2cc(F)ccc2F)(S(=O)(=O)c2ccc(Cl)cc2)CC1 [MK-0752] | −34.92 SD
41 | CNC(=O)c1ccc(C)c(-n2c(C)cc(OCc3ccc(F)cc3F)c(Br)c2=O)c1 [PH-797804] | -64.86 SD
42 | Cc1ccc([C@@H]2O[C@H](CO)[C@@H](O)[C@H](O)[C@H]2O)cc1Cc1ccc(-c2ccc(F)cc2)s1 [Canagliflozin] | −25.46 SD

Row | Molecule | Score (sum of observed SD values for 18 genes)
43 | C[C@]12CC[C@@H]3c4ccc(O)cc4CC[C@H]3[C@@H]1CC[C@@H]2O [Estradiol] | −26.58 SD
44 | CNCc1ccc(-c2[nH]c3cc(F)cc4c3c2CCNC4=O)cc1 [Rucaparib] | −3.34 SD
45 | NC(=O)c1ccc(-c2nc(-c3ccccn3)c(-c3ccc4c(c3)OCO4)[nH]2)cc1 [SB 431542] | −30.82 SD
46 | COc1c(C)cnc(Cn2cnc3c(Cl)nc(N)nc32)c1C [BIIB021] | −33.01 SD
47 | CO[C@@H](C(=O)N1Cc2n[nH]c(NC(=O)c3ccc(N4CCN(C)CC4)cc3)c2C1)c1ccccc1 [Danusertib] | −2.99 SD
48 | O=c1cc(N2CCOCC2)oc2c(-c3ccccc3)cccc12 [LY294002] | −8.41 SD
49 | Oc1nc(-c2ccc(C(F)(F)F)cc2)nc2c1CSCC2 [XAV-939] | −29.25 SD
50 | C/C(=C\C(=O)Nc1ccccc1C(=O)O)c1ccc2ccccc2c1 [BIBR 1532] | −16.4 SD
51 | COc1ccc(S(=O)(=O)Nc2cccnc2Nc2ccc(O)cc2)cc1 [ABT-751] | −13.93 SD
52 | O=C(Nc1ccc(OC(F)(F)F)cc1)c1sccc1NCc1ccnc2ccccc12 [OSI-930] | −0.3 SD
53 | CC(C)C(=O)Nc1ccc([N+](=O)[O-])c(C(F)(F)F)c1 [Flutamide] | 3.96 SD
54 | CNC(=O)c1cc(COc2nnc(Nc3ccc(Cl)cc3)c3ccoc23)ccn1 [Telatinib] | −5.24 SD
55 | C[C@H]1C[C@H]2[C@@H]3CCC4=CC(=O)C=C[C@]4(C)[C@H]3C(=O)C[C@]2(C)[C@@]1(O)C(=O)CO [Meprednisone] | −25.82 SD
56 | C[C@@H]1CCN(C(=O)CC#N)C[C@@H]1N(C)c1ncnc2[nH]ccc12 [Tofacitinib] | −13.15 SD
57 | CCC(C)n1ncn(-c2ccc(N3CCN(c4ccc(OCC5COC(Cn6cncn6)(c6ccc(Cl)cc6Cl)O5)cc4)CC3)cc2)c1=O (stereo not drawn) [Itraconazole] | −13.51 SD
58 | Cc1csc(-c2nnc(Nc3ccc(Oc4ncccc4-c4ccnc(N)n4)cc3)c3ccccc23)c1 [AMG 900] | 11.64 SD
59 | COc1ccc(-c2ccc3c(N4CCOC[C@@H]4C)nc(N4CCOC[C@@H]4C)nc3n2)cc1CO [AZD8055] | -51.01 SD
60 | CCN(CC)C(=S)SSC(=S)N(CC)CC [Disulfiram] | 37.83 SD

Same assay, conditions: OVCAR-8; drug 100 nM; panel of 18 siRNA knockdowns

Row | Molecule | synergy / antagonism of drug with gene knockdowns, in words
61 | Oc1cccc(-c2nc(N3CCOCC3)c3oc4ncccc4c3n2)c1 [PI-103] | synergy to the vast majority of genes
62 | C#Cc1cccc(Nc2ncnc3cc(OC)c(OCCCCCCC(=O)NO)cc23)c1 [CUDC-101] | mostly synergistic
63 | Cc1cnc(NC(=O)Nc2cc(Br)c(C)cc2OC[C@@H]2CNCCO2)cn1 [LY2603618] | high level of synergism
64 | NC(=O)Nc1cc(-c2cccc(F)c2)sc1C(=O)N[C@H]1CCCNC1 [AZD7762] | Frequently among the top synergizing pairs; also recorded: high level of synergism
65 | CN(C)Cc1c(C(=O)NCCOc2ccc(C(=O)NO)cc2)oc2ccccc12 [PCI-24781] | mostly synergistic
66 | COc1c(C)cnc(Cn2cnc3c(Cl)nc(N)nc32)c1C [BIIB021] | Frequently among the top synergizing pairs

Same assay, conditions: OVCAR-8; drug 100 nM; siRNA knockdown

Row | Molecule | number of genes (of 18) whose knockdown synergizes with the drug
67 | C#Cc1cccc(Nc2ncnc3cc(OC)c(OCCCCCCC(=O)NO)cc23)c1 [CUDC-101] | 11 genes
68 | CN(C)Cc1c(C(=O)NCCOc2ccc(C(=O)NO)cc2)oc2ccccc12 [PCI-24781] | 12 genes
69 | CNC(=O)c1ccc(C)c(-n2c(C)cc(OCc3ccc(F)cc3F)c(Br)c2=O)c1 [PH-797804] | 14 genes
